The text below walks through data of patent publication US20080194574A1, “Pyrazine Derivatives As Effective Compounds Against Infectious Diseases” (AXXIMA PHARMACEUTICALS AG, priority 2003, published 2008).

Where only a bound is given, the exact number is not on record here.

T1 sequence (P16788 whole entry): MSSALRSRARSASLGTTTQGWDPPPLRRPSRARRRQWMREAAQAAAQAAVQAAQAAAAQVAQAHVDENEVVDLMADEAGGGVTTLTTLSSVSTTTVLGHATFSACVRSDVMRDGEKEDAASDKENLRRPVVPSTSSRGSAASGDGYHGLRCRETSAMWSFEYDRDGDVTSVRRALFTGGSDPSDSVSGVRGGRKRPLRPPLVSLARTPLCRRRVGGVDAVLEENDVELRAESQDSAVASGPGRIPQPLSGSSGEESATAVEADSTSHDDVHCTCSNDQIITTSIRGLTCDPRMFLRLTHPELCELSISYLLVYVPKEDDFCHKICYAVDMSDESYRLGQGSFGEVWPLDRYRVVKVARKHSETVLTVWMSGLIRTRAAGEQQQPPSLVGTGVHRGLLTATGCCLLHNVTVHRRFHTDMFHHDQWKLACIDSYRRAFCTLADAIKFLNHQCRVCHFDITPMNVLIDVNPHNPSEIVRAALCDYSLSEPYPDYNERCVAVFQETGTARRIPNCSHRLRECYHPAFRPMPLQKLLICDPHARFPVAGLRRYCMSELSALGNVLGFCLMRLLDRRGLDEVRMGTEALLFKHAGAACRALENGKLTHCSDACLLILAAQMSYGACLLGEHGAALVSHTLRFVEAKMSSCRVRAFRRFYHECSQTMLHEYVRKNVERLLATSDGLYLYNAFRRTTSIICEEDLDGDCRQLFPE

One experiment has as its target T1, viral kinase pUL-97 (Human cytomegalovirus, UniProt P16788).
T1 construct: The pUL-97 gene was cloned into a baculovirus vector; GST (glutathione S-transferase) (N); made in house; host or cells: Sf9 insect cells, baculovirus
Briefly: UL97 kinase assay on Immobilon plate. To be noted: inhibition of UL 97 kinase activity; class by IC50 / % inhibition at 10 μM or 100 μM; read-out: Activity Class [A, B, C]. The format is biochemical. A digest of the protocol: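 GST-pUL97 from baculovirus-infected Sf9 cells phosphorylated myelin basic protein with ATP (3 μM in the added assay buffer) and γ-[33P]ATP in Tris-HCl pH 7.5 buffer with MnCl2 and DTT. Reaction ran 1 h at 30 °C with graded compound concentrations and was stopped with EDTA. 33P incorporation was measured by scintillation after filter capture and phosphoric acid washes.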
In the case of `c1ccc2c(-c3cncc(N4CCN(c5ccncc5)CC4)n3)csc2c1` [compound 222, 6′-Benzo[b]thiophen-3-yl-4-pyridin-4-yl-3,4,5,6-tetrahydro-2H-[1,2′]bipyrazinyl], the IC50 was 1 to 10 µM.

For the compound `Cc1cc(C)cc(-c2cncc(N3CCN(c4cccc(C)c4)C(C)C3)n2)c1` (stereo not drawn) [compound 339, 6′-(3,5-Dimethyl-phenyl)-3-methyl-4-m-tolyl-3,4,5,6-tetrahydro-2H-[1,2′]bipyrazinyl], the IC50 was 10 to 100 µM.

Turning to `c1ccc(Oc2ccc(-c3cncc(N4CCN(c5ccccn5)CC4)n3)cc2)cc1` [compound 341, 6′-(4-Phenoxy-phenyl)-4-pyridin-2-yl-3,4,5,6-tetrahydro-2H-[1,2′]bipyrazinyl], the IC50 was in the range of 10 to 100 µM. Still for that read-out and setting: for `CC(=O)c1ccc(-c2cncc(N3CCN(c4cccc(C)c4C)CC3)n2)cc1` [compound 298, 1-{4-[4-(2,3-Dimethyl-phenyl)-3,4,5,6-tetrahydro-2H-[1,2′]bipyrazinyl-6′-yl]-phenyl}-ethanone] the value was 10 to 100 µM; for `COc1cccc(N2CCN(c3cncc(-c4ccccc4)n3)CC2)c1` [compound 365, 4-(3-Methoxy-phenyl)-6′-phenyl-3,4,5,6-tetrahydro-2H-[1,2′]bipyrazinyl], 10 to 100 µM; for `Fc1ccc(N2CCN(c3cncc(-c4cc5ccccc5s4)n3)CC2)c(F)c1` [compound 272, 6′-Benzo[b]thiophen-2-yl-4-(2,4-difluoro-phenyl)-3,4,5,6-tetrahydro-2H-[1,2′]bipyrazinyl], 1 to 10 µM.

On to `COc1ccc2cc(-c3cncc(N4CCN(c5ccc(C(C)=O)cc5)CC4)n3)ccc2c1` [compound 213, 1-{4-[6′-(6-Methoxy-naphthalen-2-yl)-2,3,5,6-tetrahydro-[1,2′]bipyrazinyl-4-yl]-phenyl}-ethanone], for which the IC50 lay within 1 to 10 µM. Still for that read-out and setting: the value for `Clc1cccc(N2CCN(c3cncc(-c4csc5ccccc45)n3)CC2)c1` [compound 239, 6′-Benzo[b]thiophen-3-yl-4-(3-chloro-phenyl)-3,4,5,6-tetrahydro-2H-[1,2′]bipyrazinyl] was 10 to 100 µM; that for `Cc1ccc(N2CCN(c3cncc(-c4cccc(C)c4)n3)CC2)cc1` [compound 228, 6′-m-Tolyl-4-p-tolyl-3,4,5,6-tetrahydro-2H-[1,2′]bipyrazinyl] was 10 to 100 µM; that for `COc1cccc(N2CCN(c3cncc(-c4cc5ccccc5o4)n3)CC2)c1` [compound 285, 6′-Benzofuran-2-yl-4-(3-methoxy-phenyl)-3,4,5,6-tetrahydro-2H-[1,2′]bipyrazinyl] was 1 to 10 µM. Still for that read-out and setting: the value for `COc1ccc(-c2cncc(N3CCC(c4ccccc4)CC3)n2)cc1OC` [compound 360, 2-(3,4-Dimethoxy-phenyl)-6-(4-Phenyl-piperidin-1-yl)-pyrazine] was 1 to 10 µM; that for `COc1ccccc1N1CCN(c2cncc(-c3csc4ccccc34)n2)CC1` [compound 243, 6′-Benzo[b]thiophen-3-yl-4-(2-methoxy-phenyl)-3,4,5,6-tetrahydro-2H-[1,2′]bipyrazinyl] was 10 to 100 µM. With `COc1ccc(N2CCN(c3cncc(-c4ccsc4)n3)CC2)cc1OC` [compound 261, 4-(3,4-Dimethoxy-phenyl)-6′-thiophen-3-yl-3,4,5,6-tetrahydro-2H-[1,2′]bipyrazinyl], the IC50 lay in the range of 1 to 10 µM.

In the case of `c1ccc(C2CCN(c3cncc(-c4ccc5ccccc5c4)n3)CC2)cc1` [compound 337, 2-Naphthalen-2-yl-6-(4-phenyl-piperidin-1-yl)-pyrazine], the IC50 was in the range of 1 to 10 µM. As for `FC(F)(F)c1cccc(N2CCN(c3cncc(-c4ccc5ccccc5c4)n3)CC2)c1` [compound 252, 6′-Naphthalen-2-yl-4-(3-trifluoromethyl-phenyl)-3,4,5,6-tetrahydro-2H-[1,2′]bipyrazinyl], the IC50 was in the range of 10 to 100 µM. In the case of `COc1ccc(N2CCN(c3cncc(-c4ccccc4CO)n3)CC2)cc1OC` [compound 264, {2-[4-(3,4-Dimethoxy-phenyl)-3,4,5,6-tetrahydro-2H-[1,2′]bipyrazinyl-6′-yl]-phenyl}-methanol], the IC50 fell in the range of 10 to 100 µM. Consider `Fc1ccc(N2CCN(c3cncc(-c4csc5ccccc45)n3)CC2)cc1` [compound 235, 6′-Benzo[b]thiophen-3-yl-4-(4-fluoro-phenyl)-3,4,5,6-tetrahydro-2H-[1,2′]bipyrazinyl], for which the IC50 was 1 to 10 µM. Still for that read-out and setting: for `Fc1ccccc1N1CCN(c2cncc(-c3csc4ccccc34)n2)CC1` [compound 251, 6′-Benzo[b]thiophen-3-yl-4-(2-fluoro-phenyl)-3,4,5,6-tetrahydro-2H-[1,2′]bipyrazinyl] the value was 10 to 100 µM. Still for that read-out and setting: for `CN(C)c1ccc(-c2cncc(N3CCN(c4ccc(Cl)cc4)CC3)n2)cc1` [compound 340, {4-[4-(4-Chloro-phenyl)-3,4,5,6-tetrahydro-2H-[1,2′]bipyrazinyl-6′-yl]-phenyl}-dimethyl-amine] the value was 10 to 100 µM; for `Cc1ccc(-c2cncc(N3CCN(c4cnccn4)CC3)n2)cc1` [compound 330, 6-p-Tolyl-2′,3′,5′,6′-tetrahydro-[2,1′;4′,2″]terpyrazine], 1 to 10 µM; for `CC(=O)c1ccccc1-c1cncc(N2CCN(c3ccncc3)CC2)n1` [compound 218, 1-[2-(4-Pyridin-4-yl-3,4,5,6-tetrahydro-2H-[1,2′]bipyrazinyl-6′-yl)-phenyl]-ethanone], 10 to 100 µM.

Staying with this experiment, now noted: inhibition of UL 97 kinase activity; class by IC50 / % inhibition at 10 or 100 μM; read-out: Activity Class [A, B, C].
`COc1ccc(-c2cncc(NCCc3cccnc3)n2)cc1` [compound 18]: the IC50 is below 1 µM. The same measure, in the same setting: the value for `COc1ccc(-c2cncc(N3CCN(c4cccc5[nH]ccc45)CC3)n2)cc1` [compound 38, 4-(1H-Indol-4-yl)-6′-(4-methoxy-phenyl)-3,4,5,6-tetrahydro-2H-[1,2′]bipyrazinyl] was 1 to 10 µM; that for `Oc1ccc(-c2cncc(NCc3cccs3)n2)cc1` [compound 30, 4-{6-[(Thiophen-2-ylmethyl)-amino]-pyrazin-2-yl}-phenol] was below 1 µM. Still for that read-out and setting: for `Clc1ccc(-c2cncc(N3CCN(c4ccccn4)CC3)n2)cc1` [compound 14, 6′-(4-Chloro-phenyl)-4-pyridin-2-yl-3,4,5,6-tetrahydro-2H-[1,2′]bipyrazinyl] the value was 10 to 100 µM; for `COc1ccccc1N1CCN(c2cncc(-c3ccc(C(C)(C)C)cc3)n2)CC1` [compound 88, 6′-(4-tert-Butyl-phenyl)-4-(2-methoxy-phenyl)-3,4,5,6-tetrahydro-2H-[1,2′]bipyrazinyl], 10 to 100 µM.

For the compound `COc1ccccc1N1CCN(c2cncc(-c3ccc(SC)cc3)n2)CC1` [compound 108, 4-(2-Methoxy-phenyl)-6′-(4-methylsulfanyl-phenyl)-3,4,5,6-tetrahydro-2H-[1,2′]bipyrazinyl], the IC50 lay in the range of 1 to 10 µM. The same measure, in the same setting: for `c1cncc(-c2cncc(N3CCN(c4cccc5[nH]ccc45)CC3)n2)c1` [compound 64, 4-(1H-Indol-4-yl)-6′-pyridin-3-yl-3,4,5,6-tetrahydro-2H-[1,2′]bipyrazinyl] the value was 1 to 10 µM. The same measure, in the same setting: the value for `OCc1cccc(-c2cncc(N3CCN(CCN4CCCC4)CC3)n2)c1` [compound 63, {3-[4-(2-Pyrrolidin-1-yl-ethyl)-3,4,5,6-tetrahydro-2H-[1,2′]bipyrazinyl-6′-yl]-phenyl}-methanol] was 10 to 100 µM; that for `OCc1cccc(-c2cncc(N3CCN(c4ccncc4)CC3)n2)c1` [compound 52, [3-(4-Pyridin-4-yl-3,4,5,6-tetrahydro-2H-[1,2′]bipyrazinyl-6′-yl)-phenyl]-methanol] was 10 to 100 µM. `CSc1ccc(-c2cncc(N3CCN(c4ccccc4F)CC3)n2)cc1` [compound 116, 4-(2-Fluoro-phenyl)-6′-(4-methylsulfanyl-phenyl)-3,4,5,6-tetrahydro-2H-[1,2′]bipyrazinyl]: the IC50 was 1 to 10 µM. On to `CC(=O)c1ccc(N2CCN(c3cncc(-c4cccc5ccccc45)n3)CC2)cc1` [compound 149, 1-[4-(6′-Naphthalen-1-yl-2,3,5,6-tetrahydro-[1,2′]bipyrazinyl-4-yl)-phenyl]-ethanone], for which the IC50 lay within 10 to 100 µM.

Turning to `Fc1ccc(-c2cncc(NCc3ccco3)n2)c(F)c1` [compound 48, [6-(2,4-Difluoro-phenyl)-pyrazin-2-yl]-furan-2-ylmethyl-amine], the IC50 was in the range of 1 to 10 µM. The same measure, in the same setting: the value for `Clc1ccc(-c2cncc(NCc3ccccc3)n2)cc1` [compound 27, Benzyl-[6-(4-chloro-phenyl)-pyrazin-2-yl]-amine] was 10 to 100 µM; that for `CCOc1ccc(-c2cncc(N3CCN(c4ccccc4)CC3)n2)cc1` [compound 121, 6′-(4-Ethoxy-phenyl)-4-phenyl-3,4,5,6-tetrahydro-2H-[1,2′]bipyrazinyl] was 1 to 10 µM.

Consider `O=C(NCCO)c1cccc(-c2cncc(N3CCN(c4ccncc4)CC3)n2)c1` [compound 39, N-(2-Hydroxy-ethyl)-3-(4-pyridin-4-yl-3,4,5,6-tetrahydro-2H-[1,2′]bipyrazinyl-6′-yl)-benzamide], for which the IC50 lay in the range of 10 to 100 µM. Still for that read-out and setting: for `COc1cccc(-c2cncc(N3CCN(c4ccncc4)CC3)n2)c1` [compound 78, 6′-(3-Methoxy-phenyl)-4-pyridin-4-yl-3,4,5,6-tetrahydro-2H-[1,2′]bipyrazinyl] the value was 1 to 10 µM.

`COc1ccc2cc(-c3cncc(N4CCN(c5ccc(OC)c(OC)c5)CC4)n3)ccc2c1` [compound 169, 4-(3,4-Dimethoxy-phenyl)-6′-(6-methoxy-naphthalen-2-yl)-3,4,5,6-tetrahydro-2H-[1,2′]bipyrazinyl]: the IC50 is 1 to 10 µM. Turning to `COc1ccc(-c2cncc(N3CCN(c4cccc(C(F)(F)F)c4)CC3)n2)cc1OC` [compound 161, 6′-(3,4-Dimethoxy-phenyl)-4-(3-trifluoromethyl-phenyl)-3,4,5,6-tetrahydro-2H-[1,2′]bipyrazinyl], the IC50 was in the range of 10 to 100 µM.
